The text below walks through data of PMC10778198, “First-in-Human Dose-Escalation Study of the Novel Oral Depsipeptide Class I-Targeting HDAC Inhibitor Bocodepsin (OKI-179) in Patients with Advanced Solid Tumors” (Cancers, 2023).

Where two headings read alike, the source gives them in different places.

By Cmax is commonly meant the highest concentration seen after dosing. The Tmax is the time from dosing to the highest level.

The subject of data set [1] is murine (syngeneic) and human cancer cell line xenograft models. Also on record: method as in PMID 34965958, PMID 31235619. Particulars: single agent; colorectal cancer, triple-negative breast cancer, diffuse large B-cell lymphoma models; cited from earlier work.
Data set [2] can be described thus: plasma pharmacokinetics by LC-MS/MS in patients. The following applies: human, plasma, oral, 300 mg, plasma; for AUC(0-t): read-out: AUClast of OKI-179; for Cmax: read-out: Cmax of OKI-179; for Tmax: read-out: Tmax of OKI-179. It is filed as in vivo, human. As for the experimental part: Blood samples were collected immediately prior to the first dose on cycle 1 and day 1, and then at 0.25, 0.5, 1, 2, 4, 8, and 24 h after taking OKI-179 on days 1 and 15. Additional samples were collected pre-dose and 2 and 4 h after OKI-179 administration on day 18 in later cohorts. Blood samples were stabilized with sodium fluoride and formic acid immediately after collection to arrest the additional conversion of the prodrug OKI-179 to OKI-006. Plasma was further stabilized using ascorbic acid prior to low-temperature storage.
Plasma concentrations of OKI-179 and OKI-006 were analyzed using validated liquid chromatography-mass spectrometry (LC-MS/MS) (Quintara Discovery Inc., Hayward, CA, USA). OKI-006 contains a free thiol moiety that can reversibly react with endogenous molecules in the blood and tissue, resulting in “bound” OKI-006. The unreacted OKI-006 is considered “free”. As bound OKI-006 can reversibly convert to free OKI-006 in vivo, both the free and “total” (free plus bound) concentrations of OKI-006 are considered pharmacologically relevant and were therefore quantified as part of this study. Bioanalytically, the total OKI-006 was measured by chemically converting all bound OKI-006 to free OKI-006 prior to analysis using the free OKI-006 bioanalytical method.
The AUClast was calculated from time zero to the time of the last quantifiable concentration for OKI-179, free OKI-006, and total OKI-006.

Setting [3] is: 300-mg 5:2, Cycle 1 Day 15, geometric mean.

As for `CC(C)[C@H](N)C(=O)SCC/C=C/[C@@H]1CC(=O)NCc2nc(cs2)C(=O)NC(C)(C)C(=O)N[C@@H](C(C)C)C(=O)O1` [OKI-179, Bocodepsin], in data set [1], the antitumor activity entry was “significant antitumor activity”. Also, the AUC(0-t) in data set [2] (300 mg 5:2 cohort, mean single-dose) worked out at 0.253 µg·h/mL; in data set [2] (300-mg 5:2, Cycle 1 Day 1, geometric mean), 0.253 µg·h/mL; in data set [2] (setting [3]) it was 0.374 µg·h/mL. For the same compound, the Cmax came out at 0.142 µg/mL in data set [2] (300-mg 5:2, Cycle 1 Day 1, geometric mean, N=6) and 0.215 µg/mL in data set [2] (setting [3]). Further, the time of peak concentration (Tmax) amounted to 0.875 h in data set [2] (300-mg 5:2, Cycle 1 Day 1, median) and 0.934 h in data set [2] (300-mg 5:2, Cycle 1 Day 15, median). The half-life in data set [2] (300-mg 5:2, Cycle 1 Day 1, median, read-out: t1/2 of OKI-179 (converted)) is 1.75 h; in data set [2] (300-mg 5:2, Cycle 1 Day 15, median, read-out: t1/2 of OKI-179 (converted)), 1.74 h; in data set [2] (day 15, 300 mg 5:2, read-out: terminal half-life (t1/2) of OKI-179 (converted)) it was about 1.7 h.
